How the values were obtained:
Test in all cases: Pharmacodynamics in Th17-stimulated human skin on Franz cell, qPCR
Type in all cases: cell-based
Details in all cases: control added to receptor solution at 40 hours and 16 hours prior to Th17 stimulation
IL1-beta = test system: IL1-beta
Description: (§1) Example 5 describes results of a study on the pharmacodynamics of composition identified as formulation identification no. OO14. In this study, human skin placed on a static in vitro diffusion cell and a fixed amount of the formulation was applied to the skin. The formulation was applied to the skin at either 16 hours prior to or both 40 hours and 16 hours prior to Th17 stimulation. The receptor solution was replaced with the Th17 stimulation media was incubated for 24 hours prior to harvesting. […] As a control, 0.01% betamethasone (BMV) was added to the receptor solution at both 40 hours and 16 hours prior to Th17 stimulation.
(§2) Freshly excised human skin was dermatomed to 750 microns with the stratum corneum intact and placed on a static Franz cell employing ˜0.6 cm^2 of skin. 10 μL of a topical formulation OO14 containing 0.079% synthetic indirubin was applied to the skin at either 16 hours prior to stimulation or both 40 hours and 16 hours prior to Th17 stimulation. As a control, 0.01% betamethasone (BMV) was added to the receptor solution at both 40 hours and 16 hours prior to Th17 stimulation. The Th17 stimulation media contains a mixture of cytokines and antibodies shown to induce Th17 polarization and was made and added as described in the skin resident immune cell activation assay in Smith S. H. et al., PLoS ONE 11(2): e0147979. The skin was cultured for an additional 24 hours prior to harvesting for qPCR and staining for AhR activation.

IL17-alpha = test system: IL17-alpha
Description: as §1, §2

IL8 = test system: IL8
Description: as §1, §2

S100A7 = test system: S100A7
Description: as §1, §2

C[C@H]1C[C@H]2[C@@H]3CCC4=CC(=O)C=C[C@]4(C)[C@@]3(F)[C@@H](O)C[C@]2(C)[C@@]1(O)C(=O)CO [0.01% BMV, betamethasone]
% Inhibition Compared to Th17, IL1-beta (IL1-beta): 58.66%
% Inhibition Compared to Th17, IL17-alpha (IL17-alpha): 96.99%
% Inhibition Compared to Th17, IL8 (IL8): 14.01%
% Inhibition Compared to Th17, S100A7 (S100A7): N/I* (Not Inhibited compared to Th17)
